Patent publication US8445510B2, “Fused bicyclic kinase inhibitors” (OSI Pharmaceuticals, LLC, priority 2011, dated 2013)

Assays:
Karpas-299 cells = assay: Karpas-299 cell proliferation assay (CellTiter-Glo); assay type: cell-based; settings: Homo sapiens, 72 h; Karpas-299 cell line (NPM-ALK); 3 days incubation; at least duplicate experiments; read-out: Prolif. IC50
Aurora B = biological target: T1, Aurora B (Homo sapiens, UniProt Q96GD4); assay: Aurora B cell mechanistic assay (HT-29), phospho-Histone H3 (Ser10) ELISA; assay type: cell-based; settings: HT-29 cell line; inhibition of phospho-Histone H3 (Ser10); at least duplicate experiments (italicized if single experiment); read-out: Aurora B mech IC50
T1 construct: HT-29 cells grown in complete growth media
T1 sequence (Q96GD4 whole entry): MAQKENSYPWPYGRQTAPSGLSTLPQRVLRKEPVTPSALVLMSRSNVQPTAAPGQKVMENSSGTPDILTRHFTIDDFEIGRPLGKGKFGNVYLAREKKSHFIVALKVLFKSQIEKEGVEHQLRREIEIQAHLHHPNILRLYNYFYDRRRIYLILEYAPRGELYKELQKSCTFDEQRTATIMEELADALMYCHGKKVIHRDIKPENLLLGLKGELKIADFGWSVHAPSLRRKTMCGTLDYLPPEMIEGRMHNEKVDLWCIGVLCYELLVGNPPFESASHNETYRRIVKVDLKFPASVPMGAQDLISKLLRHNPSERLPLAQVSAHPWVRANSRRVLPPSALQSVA
Description: The cellular activity of the compounds of the present invention against Aurora B may be determined by the following procedure. HT-29 cells grown in complete growth media (McCoy's 5A, 10% FCS, 1% L-glutamine) were plated into wells of a 96 well tissue culture plate (Falcon 3072) at a cell density of 4×10^4 cells/0.09 ml media/well. Cells were subsequently incubated overnight in a 5% CO2 humidified 37° C. incubator. The following day 10 μl of a 10× stock of test compound serially diluted in media was added to the cells and incubated for 1 h at 37° C. at which time Calyculin A (Cell Signaling #9902) was added at a concentration of 100 nM and cells incubated for an additional 30 minutes in a 5% CO2 humidified 37° C. incubator. Media was then aspirated and cells lysed using a Triton based lysis buffer. Lysates were transferred to a pre-coated anti-Histone H3 antibody coated plate supplied by Cell Signaling in their PathScan phospho-Histone H3 (Ser10) ELISA kit (#7155). After an overnight incubation with lysate the ELISA was continued following the manufacturer's instructions. Signal was measured on a Wallac Victor plate reader at 450 nm. DMSO control treated cells served as 100% signal and an Aurora B kinase inhibitor served as 100% inhibition. The percent inhibition of phospho-Histone H3 (Ser10) was expressed as % control. IC50 values were calculated from the percent control data using a standard four-parameter model.
The IC50 values of exemplary compounds of the present invention determined in a Aurora B cell mechanistic assay using the HT-29 cell line according to the procedures described herein in at least duplicate experiments are abbreviated as follows and are shown in Table 4: A, IC50≦0.05 μM; B, 0.05 μM<IC50≦0.2 μM; C, 0.2 μM<IC50≦1 μM; D, IC50>1 μM; ND, not determined. If only data from single experiments are available, the abbreviations are italicized. The Example # of Table 4 corresponds to the compound example number as illustrated in the Examples section.

| IC50 (Karpas-299 cells) | IC50 (Aurora B) | SMILES |
| --- | --- | --- |
| ≤ 50 nM | > 1000 nM | COc1ccc(F)c(Cl)c1[C@@H](C)c1c[nH]c2ncc(-c3cnn([C@H]4CC[C@H](C(=O)N(C)C)CC4)c3C)cc12 [Example 14, Trans-4-(4-{3-[(1S)-1-(2-chloro-3-fluoro-6-methoxyphenyl)ethyl]-1H-pyrrolo[2,3-b]pyridin-5-yl}-5-methyl-1H-pyrazol-1-yl)-N,N-dimethylcyclohexanecarboxamide] |
| ≤ 50 nM | 200 to 1000 nM | CNC(=O)[C@H]1CC[C@H](n2ncc(-c3cnc4[nH]cc([C@H](C)c5c(OC)ccc(F)c5Cl)c4c3)c2C)CC1 [Example 17, trans-4-(4-{3-[(1S)-1-(2-Chloro-3-fluoro-6-methoxyphenyl)ethyl]-1H-pyrrolo[2,3-b]pyridin-5-yl}-5-methyl-1H-pyrazol-1-yl)-N-methyl cyclohexanecarboxamide] |
| ≤ 50 nM | 200 to 1000 nM | COc1ccc(F)c(Cl)c1[C@@H](C)c1c[nH]c2ncc(-c3cnn([C@H]4CC[C@H](C(N)=O)CC4)c3C)cc12 [Example 18, trans-4-(4-{3-[(1S)-1-(2-chloro-3-fluoro-6-methoxyphenyl)ethyl]-1H-pyrrolo[2,3-b]pyridin-5-yl}-5-methyl-1H-pyrazol-1-yl)cyclohexanecarboxamide] |
| ≤ 50 nM | 50 to 200 nM | COc1ccc(F)c(Cl)c1[C@@H](C)c1c[nH]c2ncc(-c3cn([C@H]4CC[C@H](C(N)=O)CC4)nc3C)cc12 [Example 19, trans-4-(4-{3-[(1S)-1-(2-Chloro-3-fluoro-6-methoxyphenyl)ethyl]-1H-pyrrolo[2,3-b]pyridin-5-yl}-3-methyl-1H-pyrazol-1-yl)cyclohexanecarboxamide] |
| ≤ 50 nM | 50 to 200 nM | CNC(=O)[C@H]1CC[C@H](n2cc(-c3cnc4[nH]cc([C@H](C)c5c(OC)ccc(F)c5Cl)c4c3)c(C)n2)CC1 [Example 22, trans-4-(4-{3-[(1S)-1-(2-Chloro-3-fluoro-6-methoxyphenyl)ethyl]-1H-pyrrolo[2,3-b]pyridin-5-yl}-3-methyl-1H-pyrazol-1-yl)-N-methylcyclohexanecarboxamide] |
| ≤ 50 nM | > 1000 nM | COc1ccc(F)c(Cl)c1[C@@H](C)c1c[nH]c2ncc(-c3cnn([C@H]4CC[C@H](O)CC4)c3C)cc12 [Example 27, trans-4-(4-{3-[(1S)-1-(2-Chloro-3-fluoro-6-methoxyphenyl)ethyl]-1H-pyrrolo[2,3-b]pyridin-5-yl}-5-methyl-1H-pyrazol-1-yl)cyclohexanol] |
| ≤ 50 nM | > 1000 nM | COc1ccc(F)c(Cl)c1[C@@H](C)c1c[nH]c2ncc(-c3cnn([C@@H]4C[C@@H](O)[C@@H](O)C4)c3C)cc12 [Example 31, (1R,2S,4S)-4-(4-{3-[(1S)-1-(2-Chloro-3-fluoro-6-methoxyphenyl)ethyl]-1H-pyrrolo[2,3-b]pyridin-5-yl}-5-methyl-1H-pyrazol-1-yl)cyclopentane-1,2-diol] |
| ≤ 50 nM | 50 to 200 nM | COc1ccc(F)c(Cl)c1[C@@H](C)c1c[nH]c2ncc(-c3cn([C@@H]4C[C@@H](O)[C@@H](O)C4)nc3C)cc12 [Example 32, (1R,2S,4S)-4-(4-{3-[(1S)-1-(2-Chloro-3-fluoro-6-methoxyphenyl)ethyl]-1H-pyrrolo[2,3-b]pyridin-5-yl}-3-methyl-1H-pyrazol-1-yl)cyclopentane-1,2-diol] |
| ≤ 50 nM | > 1000 nM | COc1ccc(F)c(Cl)c1[C@@H](C)c1c[nH]c2ncc(-c3c(C)nn([C@@H]4C[C@@H](O)[C@@H](O)C4)c3C)cc12 [Example 33, (1R,2S,4S)-4-(4-{3-[(1S)-1-(2-Chloro-3-fluoro-6-methoxyphenyl)ethyl]-1H-pyrrolo[2,3-b]pyridin-5-yl}-3,5-dimethyl-1H-pyrazol-1-yl)cyclopentane-1,2-diol] |
| 200 to 1000 nM | > 1000 nM | COc1ccc(F)c(Cl)c1[C@@H](C)c1c[nH]c2ncc(-c3cn(C[C@@H](O)CO)nc3C(F)(F)F)cc12 [Example 34, (2R)-3-[4-{3-[(1S)-1-(2-Chloro-3-fluoro-6-methoxyphenyl)ethyl]-1H-pyrrolo[2,3-b]pyridin-5-yl}-3-(trifluoromethyl)-1H-pyrazol-1-yl]propane-1,2-diol] |
| 200 to 1000 nM | > 1000 nM | COc1ccc(F)c(Cl)c1[C@@H](C)c1c[nH]c2ncc(-c3cnn(C[C@@H](O)CO)c3C(F)(F)F)cc12 [Example 35, (2R)-3-[4-{3-[(1S)-1-(2-Chloro-3-fluoro-6-methoxyphenyl)ethyl]-1H-pyrrolo[2,3-b]pyridin-5-yl}-5-(trifluoromethyl)-1H-pyrazol-1-yl]propane-1,2-diol] |
| 50 to 200 nM | 200 to 1000 nM | COc1ccc(F)c(Cl)c1[C@@H](C)c1c[nH]c2ncc(-c3cnn(C)c3N)cc12 [Example 38, 4-{3-[(1S)-1-(2-Chloro-3-fluoro-6-methoxyphenyl)ethyl]-1H-pyrrolo[2,3-b]pyridin-5-yl}-1-methyl-1H-pyrazol-5-amine] |
| 200 to 1000 nM | > 1000 nM | COc1ccc(F)c(Cl)c1[C@@H](C)c1c[nH]c2ncc(-c3cn(C)nc3C(N)=O)cc12 [Example 39, 4-{3-[(1S)-1-(2-Chloro-3-fluoro-6-methoxyphenyl)ethyl]-1H-pyrrolo[2,3-b]pyridin-5-yl}-1-methyl-1H-pyrazole-3-carboxamide] |
| > 1000 nM | > 1000 nM | COc1ccc(F)c(Cl)c1[C@@H](C)c1c[nH]c2ncc(-c3c(C)nn(C)c3C(N)=O)cc12 [Example 41, 4-{3-[(1S)-1-(2-Chloro-3-fluoro-6-methoxyphenyl)ethyl]-1H-pyrrolo[2,3-b]pyridin-5-yl}-1,3-dimethyl-1H-pyrazole-5-carboxamide] |
| 50 to 200 nM | 200 to 1000 nM | COc1ccc(F)c(Cl)c1[C@@H](C)c1c[nH]c2ncc(-c3cn(C)nc3CO)cc12 [Example 42, (4-{3-[(1S)-1-(2-Chloro-3-fluoro-6-methoxyphenyl)ethyl]-1H-pyrrolo[2,3-b]pyridin-5-yl}-1-methyl-1H-pyrazol-3-yl)methanol] |
| > 1000 nM | > 1000 nM | COc1ccc(F)c(Cl)c1[C@@H](C)c1c[nH]c2ncc(-c3cnn(C)c3C(N)=O)cc12 [Example 43, 4-{3-[(1S)-1-(2-Chloro-3-fluoro-6-methoxyphenyl)ethyl]-1H-pyrrolo[2,3-b]pyridin-5-yl}-1-methyl-1H-pyrazole-5-carboxamide] |
| 50 to 200 nM | > 1000 nM | COc1ccc(F)c(Cl)c1[C@@H](C)c1c[nH]c2ncc(-c3cnn(C)c3CO)cc12 [Example 44, (4-{3-[(1S)-1-(2-Chloro-3-fluoro-6-methoxyphenyl)ethyl]-1H-pyrrolo[2,3-b]pyridin-5-yl}-1-methyl-1H-pyrazol-5-yl)methanol] |
| 50 to 200 nM | > 1000 nM | COc1ccc(F)c(Cl)c1[C@@H](C)c1c[nH]c2ncc(-c3c(C)nn(C)c3CO)cc12 [Example 45, (4-{3-[(1S)-1-(2-Chloro-3-fluoro-6-methoxyphenyl)ethyl]-1H-pyrrolo[2,3-b]pyridin-5-yl}-1,3-dimethyl-1H-pyrazol-5-yl)methanol] |
| 200 to 1000 nM | > 1000 nM | COc1ccc(F)c(Cl)c1[C@@H](C)c1c[nH]c2ncc(-c3cn(C)nc3C#N)cc12 [Example 46, 4-{3-[(1S)-1-(2-Chloro-3-fluoro-6-methoxyphenyl)ethyl]-1H-pyrrolo[2,3-b]pyridin-5-yl}-1-methyl-1H-pyrazole-3-carbonitrile] |
| 50 to 200 nM | > 1000 nM | CCc1nn([C@H]2CC[C@H](O)CC2)cc1-c1cnc2[nH]cc([C@H](C)c3c(OC)ccc(F)c3Cl)c2c1 [Example 47, trans-4-(4-{3-[(1S)-1-(2-Chloro-3-fluoro-6-methoxyphenyl)ethyl]-1H-pyrrolo[2,3-b]pyridin-5-yl}-3-ethyl-1H-pyrazol-1-yl)cyclohexanol] |
| 50 to 200 nM | > 1000 nM | CCc1c(-c2cnc3[nH]cc([C@H](C)c4c(OC)ccc(F)c4Cl)c3c2)cnn1[C@H]1CC[C@H](O)CC1 [Example 48, trans-4-(4-{3-[(1S)-1-(2-Chloro-3-fluoro-6-methoxyphenyl)ethyl]-1H-pyrrolo[2,3-b]pyridin-5-yl}-5-ethyl-1H-pyrazol-1-yl)cyclohexanol] |
| 50 to 200 nM | > 1000 nM | COc1ccc(F)c(Cl)c1[C@@H](C)c1c[nH]c2ncc(-c3cnn([C@H]4CC[C@H](O)CC4)c3Cl)cc12 [Example 49, trans-4-(5-Chloro-4-{3-[(1S)-1-(2-chloro-3-fluoro-6-methoxyphenyl)ethyl]-1H-pyrrolo[2,3-b]pyridin-5-yl}-1H-pyrazol-1-yl)cyclohexanol] |
